From US20250361230A1, “LATS Inhibitors and Uses Thereof” (The USA, as Represented by the Secretary, Dept. of Heath …, priority 2022, published 2025) come the findings set out here.

Usually IC50 stands for the concentration that gives 50% inhibition.

Each structure is given as a SMILES string.

In the test the target is T1, LATS1 Kinase-NanoLuc fusion in HEK-293 cells (Homo sapiens, UniProt O95835).
T1 construct: host or cells: HEK-293
T1 sequence (O95835 1-1130): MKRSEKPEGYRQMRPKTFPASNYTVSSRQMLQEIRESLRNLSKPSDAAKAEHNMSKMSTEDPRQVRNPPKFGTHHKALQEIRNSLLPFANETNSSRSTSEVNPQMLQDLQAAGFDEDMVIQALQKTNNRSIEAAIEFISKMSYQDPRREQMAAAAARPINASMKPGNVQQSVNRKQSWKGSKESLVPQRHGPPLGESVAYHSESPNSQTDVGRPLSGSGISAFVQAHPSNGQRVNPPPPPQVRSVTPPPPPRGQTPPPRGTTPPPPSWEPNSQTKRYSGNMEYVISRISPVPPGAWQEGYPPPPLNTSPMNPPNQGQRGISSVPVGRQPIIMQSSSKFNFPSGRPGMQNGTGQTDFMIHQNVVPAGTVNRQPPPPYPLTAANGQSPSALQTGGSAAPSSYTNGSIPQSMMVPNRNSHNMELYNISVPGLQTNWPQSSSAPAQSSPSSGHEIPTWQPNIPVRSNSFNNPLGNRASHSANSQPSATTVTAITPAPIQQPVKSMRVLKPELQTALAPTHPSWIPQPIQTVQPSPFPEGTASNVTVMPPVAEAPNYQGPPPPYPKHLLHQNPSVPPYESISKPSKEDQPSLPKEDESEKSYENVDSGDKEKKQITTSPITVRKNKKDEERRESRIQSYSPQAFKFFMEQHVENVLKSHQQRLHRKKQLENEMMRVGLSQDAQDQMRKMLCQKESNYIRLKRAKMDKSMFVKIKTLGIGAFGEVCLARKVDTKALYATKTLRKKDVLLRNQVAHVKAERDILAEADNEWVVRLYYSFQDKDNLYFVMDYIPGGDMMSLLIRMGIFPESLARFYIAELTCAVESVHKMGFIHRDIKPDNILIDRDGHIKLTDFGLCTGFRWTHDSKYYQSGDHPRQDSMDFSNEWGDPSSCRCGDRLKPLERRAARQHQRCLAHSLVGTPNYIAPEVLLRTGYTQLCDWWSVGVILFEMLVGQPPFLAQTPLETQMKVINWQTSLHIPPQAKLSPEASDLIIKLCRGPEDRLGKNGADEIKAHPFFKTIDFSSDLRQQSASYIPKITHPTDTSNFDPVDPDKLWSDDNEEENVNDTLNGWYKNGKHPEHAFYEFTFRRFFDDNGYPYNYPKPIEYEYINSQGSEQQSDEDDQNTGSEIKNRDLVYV
Nature of the test: NanoBRET target engagement assay in transfected HEK-293 cells, LATS1. It is filed as cell-based. The following applies: Table 28, NanoBRET, HEK-293 cells; read-out: LATS1 (Cellular) IC50. From the text: The NanoBRET™ assay measures kinase engagement in real time in the context of the intact cell. The assay uses a Kinase-NanoLuc® fusion vector expressing a kinase protein to which a luciferase tag has been added, a cell-permeant fluorescent NanoBRET™ tracer, a NanoLuc® substrate, and an extracellular NanoLuc® inhibitor. Upon expression of the luciferase-tagged kinase, cells will produce a strong BRET signal only in the presence of the NanoBRET™ tracer. The extracellular NanoLuc® inhibitor ensures that the BRET signal observed emanates only from live cells. Because the BRET signal has tight distance constraints, addition of the test compound will decrease the BRET signal if the compound competes with the NanoBRET™ tracer for binding to the kinase domain. Under the appropriate tracer conditions established by the manufacturer, quantitative intracellular affinity and relative potency can then be determined using Mass Action model equations.
HEK-293 cells were purchased from ATCC. FuGENEHD Transfection Reagent, Kinase-NanoLuc® fusion plasmids, Transfection Carrier DNA, NanoBRET™ Tracers and dilution buffer, NanoBRET™ Nano-Glo Substrate, Extracellular NanoLuc® Inhibitor were obtained from Promega.
Assays were conducted following Promega assay protocol with some modifications as described further below. HEK-293 Cells were transiently transfected with Kinase-NanoLuc® Fusion Vector DNA by FuGENE HD Transfection Reagent. Test compounds were delivered into 384 well assay plate by Echo 550 (Labcyte Inc, Sunnyvale, CA). Transfected cells were harvested and mixed with NanoBRET™ Tracer Reagent and dispensed into 384 well plates and incubated at 37° C. in 5% CO2 cell culture incubator for 1 hour. The NanoBRET™ Nano-Glo Substrate plus Extracellular NanoLuc® Inhibitor Solution were added into the wells of the assay plate and incubated for 2-3 minutes at room temperature. The donor emission wavelength (460 nm) and acceptor emission wavelength (600 nm) were measured in the EnVision plate reader. The BRET Ratios were calculated. BRET Ratio=[(Acceptor sample÷Donor sample)−(Acceptor no-tracer control÷Donor no-tracer control)]. The IC50 values of compounds were calculated with Prism GraphPad program.
• 1. Transient Transfection of HEK-293 Cells NanoLuc® Fusion Vector DNA • 1). Cultivate HEK-293 cells (70-80% confluence) appropriately prior to assay. Trypsinize and collect HEK-293 cells. • 2). Prepare lipid: DNA complexes as follows: • a. Prepare a […] solution of DNA in Opti-MEM™ without serum that consists of the following ratios of carrier DNA and DNA encoding NanoLuc® fusion. 9.0 µg/mL of Transfection Carrier DNA, […] of NanoLuc® fusion vector DNA and 1 mL of Opti-MEM™ without phenol red. Mix thoroughly. • b. Add 30 μl of FuGENE HD Transfection Reagent into each milliliter of DNA mixture to form lipid: DNA complex. • c. Mix by inversion 10 times. • d. Incubate at ambient temperature for 20 minutes to allow complexes to form. • 3). In a sterile, conical tube, mix 1 part of lipid: DNA complex with 20 parts of HEK-293 cells in suspension. Mix gently by inversion 5 times. • 4). Dispense cells+lipid: DNA complex into a sterile tissue culture dish and incubate for 22-24 hours. • 2. Addition of Test Compounds (dry plate shooting): Each test compound is delivered from the compound source plate to the wells of 384-well white NBS plate by Echo 550. • 3. Preparation of Cells with NanoBRET™ Tracer Reagent • 1). Remove medium from dish with transfected HEK-293 cells via aspiration, trypsinize and allow cells to dissociate from the dish. • 2). Neutralize trypsin using medium containing serum and centrifuge at 200× g for 5 minutes to pellet the cells. Adjust the cell density to 2×10^5 cells/mL in Opti-MEM™ without phenol red. • 3). Prepare Complete 20× NanoBRET™ Tracer Reagent with Tracer Dilution Buffer. • 4). Dispense one part of Complete 20× NanoBRET™ Tracer Reagent to 20 parts of cells in the tube. Mix gently by inversion 10 times. • 5). […]
Background: In BRET a luciferase serves as donor, and the signal depends on an acceptor being close.
Turning to `Cc1cc(-c2ccnc3[nH]cc(F)c23)ncc1[C@@]1(O)[C@H](C)CN(C2CCS(=O)(=O)CC2)C[C@@H]1C` [Compound 51, 4-((3R,4s,5S)-4-(6-(3-fluoro-1H-pyrrolo[2,3-b]pyridin-4-yl)-4-methylpyridin-3-yl)-4-hydroxy-3,5-dimethylpiperidin-1-yl)tetrahydro-2H-thiopyran 1,1-dioxide], the IC50 is greater than 30 µM. For the compound `Cc1cc(-c2ccnc3[nH]cc(F)c23)ccc1[C@@]1(O)[C@H](C)CN(C2CCC2)C[C@@H]1C` [Compound 54, (3R,4s,5S)-1-cyclobutyl-4-(4-(3-fluoro-1H-pyrrolo[2,3-b]pyridin-4-yl)-2-methylphenyl)-3,5-dimethylpiperidin-4-ol], the 50% inhibitory concentration (IC50) amounted to 0.087 µM.

On to `Cc1cc(-c2ccnc3[nH]cc(F)c23)ccc1[C@@]1(O)[C@H](C)CN(C2CCS(=O)(=O)CC2)C[C@@H]1C` [Compound 55, 4-((3R,4s, 5S)-4-(4-(3-fluoro-1H-pyrrolo[2,3-b]pyridin-4-yl)-2-methylphenyl)-4-hydroxy-3,5S-dimethylpiperidin-1-yl)tetrahydro-2H-thiopyran 1,1-dioxide], for which the IC50 stood at 0.367 µM.

For the compound `Cc1cc(-c2ccnc3[nH]cc(F)c23)cc(F)c1[C@@]1(O)[C@H](C)CN(C2CCS(=O)(=O)CC2)C[C@@H]1C` [Compound 57, 4-((3R,4s,5S)-4-(2-fluoro-4-(3-fluoro-1H-pyrrolo[2,3-b]pyridin-4-yl)-6-methylphenyl)-4-hydroxy-3,5-dimethylpiperidin-1-yl)tetrahydro-2H-thiopyran 1,1-dioxide], the IC50 amounted to 0.0369 µM. Consider `C[C@@H]1CN(C(=O)CN)C[C@H](C)[C@@]1(O)c1c(F)cc(-c2ccnc3[nH]cc(F)c23)cc1F` [Compound 58], for which the IC50 was 0.147 µM. As to `Cc1cc(-c2ccnc3[nH]cc(F)c23)ccc1[C@@]1(O)[C@H](C)CN(C(=O)CN)C[C@@H]1C` [Compound 60, 2-amino-1-((3R,4s,5S)-4-(4-(3-fluoro-1H-pyrrolo[2,3-b]pyridin-4-yl)-2-methylphenyl)-4-hydroxy-3,5-dimethylpiperidin-1-yl)ethan-1-one], the IC50 came out at 0.0215 µM. With `Cc1cc(-c2ccnc3[nH]cc(F)c23)cc(F)c1[C@@]1(O)[C@H](C)CN(C(=O)CN)C[C@@H]1C` [Compound 61, 2-amino-1-((3R,4s,5S)-4-(2-fluoro-4-(3-fluoro-1H-pyrrolo[2,3-b]pyridin-4-yl)-6-methylphenyl)-4-hydroxy-3,5-dimethylpiperidin-1-yl)ethan-1-one], the IC50 stood at 0.004 µM. The result for `C[C@@H]1CN(CC(N)=O)C[C@H](C)[C@@]1(O)c1c(F)cc(-c2ccnc3[nH]cc(F)c23)cc1F` [Compound 88, 2-((3R,4s,5S)-4-(2,6-difluoro-4-(3-fluoro-1H-pyrrolo[2,3-b]pyridin-4-yl)phenyl)-4-hydroxy-3,5-dimethylpiperidin-1-yl)acetamide] reads 0.205 µM; that for `C[C@@H]1CN(C2CCNCC2)C[C@H](C)[C@@]1(O)c1c(F)cc(-c2ccnc3[nH]cc(F)c23)cc1F` [Compound 90, (3R,4s,5S)-4-(2,6-difluoro-4-(3-fluoro-1H-pyrrolo[2,3-b]pyridin-4-yl)phenyl)-3,5-dimethyl-[1,4′-bipiperidin]-4-ol], 0.338 µM; that for `OC1(c2ccc(-c3ccnc4[nH]cc(F)c34)cc2)CCNCC1` [Compound 110, 4-(4-(3-fluoro-1H-pyrrolo[2,3-b]pyridin-4-yl)phenyl)piperidin-4-ol], 17.7 µM. The result for `OC1(c2ccc(-c3ccnc4[nH]ccc34)cc2)CCNCC1` [Compound 111, 4-(4-(1H-pyrrolo[2,3-b]pyridin-4-yl)phenyl)piperidin-4-ol] reads greater than 50 µM. Turning to `Cc1cc(-c2ccnc3[nH]cc(F)c23)cc(F)c1C1(O)CC2(CN(C3COC3)C2)C1` [Compound 139, 6-(2-fluoro-4-(3-fluoro-1H-pyrrolo[2,3-b]pyridin-4-yl)-6-methylphenyl)-2-(oxetan-3-yl)-2-azaspiro[3.3]heptan-6-ol], the 50% inhibitory concentration (IC50) was 0.0582 µM. Consider `O=C([C@H]1CCCN1)N1CCC(O)(c2ccc(-c3ccnc4[nH]cc(F)c34)cc2)CC1` [Compound 142], for which the IC50 worked out at 1.84 µM.

Turning to `Fc1c[nH]c2nccc(-c3ccc(C4CCNCC4)cc3)c12` [Compound 169, 3-fluoro-4-(4-(piperidin-4-yl)phenyl)-1H-pyrrolo[2,3-b]pyridine], the half-inhibitory concentration (IC50) turned out to be 25.8 µM. Take `Fc1c[nH]c2nccc(-c3ccc(C4CCNCC4)c(Cl)c3)c12` [Compound 172, 4-(3-chloro-4-(piperidin-4-yl)phenyl)-3-fluoro-1H-pyrrolo[2,3-b]pyridine]: the IC50 is greater than 50 µM. For the compound `Clc1c[nH]c2nccc(-c3ccc(C4CCNCC4)cc3)c12` [Compound 173, 3-chloro-4-(4-(piperidin-4-yl)phenyl)-1H-pyrrolo[2,3-b]pyridine], the IC50 was 1.2 µM. `Cc1cc(-c2ccnc3[nH]ccc23)ccc1C1CCNCC1` [Compound 177, 4-(3-methyl-4-(piperidin-4-yl)phenyl)-1H-pyrrolo[2,3-b]pyridine]: the IC50 came to 48.3 µM. In the case of `c1cc(-c2ccc(C3CC4CCC(C3)N4)cc2)c2cc[nH]c2n1` (centres unmarked) [Compound 184, 4-(4-(8-azabicyclo[3.2.1]octan-3-yl)phenyl)-1H-pyrrolo[2,3-b]pyridine], the IC50 was 57.4 µM. Consider `CC1CC(c2ccc(-c3ccnc4[nH]ccc34)cc2)CC(C)N1` (centres unmarked) [Compound 187, 4-(4-(2,6-dimethylpiperidin-4-yl)phenyl)-1H-pyrrolo[2,3-b]pyridine], for which the IC50 was greater than 50 µM. For the compound `CC1(c2ccc(-c3ccnc4[nH]ccc34)cc2)CCNCC1` [Compound 201, 4-(4-(4-methylpiperidin-4-yl)phenyl)-1H-pyrrolo[2,3-b]pyridine], the IC50 was greater than 50 µM.
